Where “and” joins values, the source holds several entries; their conditions need not be identical. Equal entries are not always repeated. Inconclusive results and toxic doses are left out. Rule for the calls: active = survival T/C of 150% or more; inactive = T/C below 125% in these data.
Test system: P388 leukemia ip, CD2F1 mice, survival T/C
Assay: NCI In Vivo Anticancer Drug Screen. Data for tumor model P388 Leukemia (intraperitoneal) in CD2F1 (CDF1) mice
Details: endpoint: median survival time, higher = longer survival
Method in brief: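 Mice carrying the transplanted tumor received test compound or vehicle. Survival was recorded in each group, and the value is the treated-group measurement divided by that of the vehicle-treated control group.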

[1] = dose: 60.0 mg/kg/injection, schedule: Q01DX005 (ip), vehicle: saline with Tween-80
[2] = dose: 120.0 mg/kg/injection, schedule: Q01DX005 (ip), vehicle: saline with Tween-80
[3] = dose: 240.0 mg/kg/injection, schedule: Q01DX005 (ip), vehicle: saline with Tween-80
[4] = dose: 25.0 mg/kg/injection, schedule: Q01DX009 (ip), vehicle: saline with Tween-80
[5] = dose: 50.0 mg/kg/injection, schedule: Q01DX009 (ip), vehicle: saline with Tween-80
[6] = dose: 100.0 mg/kg/injection, schedule: Q01DX009 (ip), vehicle: saline with Tween-80
[7] = dose: 200.0 mg/kg/injection, schedule: Q01DX009 (ip), vehicle: saline with Tween-80

Measured: T/C

CC(=O)OCC1OC(OC2=C(CC=C(C)C)C(=O)c3ccccc3C2=O)C(OC(C)=O)C(OC(C)=O)C1OC(C)=O (stereo not drawn)
inactive: dose: 25.0 mg/kg/injection, schedule: Q04DX003 (ip), vehicle: saline with Tween-80 100 % of control | dose: 50.0 mg/kg/injection, schedule: Q04DX003 (ip), vehicle: saline with Tween-80 102 % of control | dose: 100.0 mg/kg/injection, schedule: Q04DX003 (ip), vehicle: saline with Tween-80 94 % of control | dose: 200.0 mg/kg/injection, schedule: Q04DX003 (ip), vehicle: saline with Tween-80 114 % of control

N#CC(=S)N(C(=O)c1ccc(Cl)cc1)c1ccccc1Cl
inactive: dose: 60.0 mg/kg/injection, schedule: Q01DX005 (ip), vehicle: Klucel + Tween-80 103 % of control | dose: 120.0 mg/kg/injection, schedule: Q01DX005 (ip), vehicle: Klucel + Tween-80 112 % of control

COC(=O)NC1CC(C2CO2)OC1=O (stereo not drawn)
inactive: dose: 50.0 mg/kg/injection, schedule: Q01DX005 (ip), vehicle: saline 101 % of control | dose: 100.0 mg/kg/injection, schedule: Q01DX005 (ip), vehicle: saline 99 % of control | dose: 200.0 mg/kg/injection, schedule: Q01DX005 (ip), vehicle: saline 109 % of control

FC(F)(F)C(OCC1CO1)(c1ccccc1)C(F)(F)F (stereo not drawn)
inactive: dose: 50.0 mg/kg/injection, schedule: Q01DX009 (ip), vehicle: Klucel (hydroxypropylcellulose) (HPC) 89 % of control | dose: 100.0 mg/kg/injection, schedule: Q01DX009 (ip), vehicle: Klucel (hydroxypropylcellulose) (HPC) 97 % of control | dose: 200.0 mg/kg/injection, schedule: Q01DX009 (ip), vehicle: Klucel (hydroxypropylcellulose) (HPC) 97 % of control

COc1ccc(C(=O)CCc2cccc(NC(=O)CCCl)c2)cc1
inactive: [1] 105 % of control | [2] 94 % of control | [3] 92 % of control

COc1cc(/C=C\Cc2cc3c(cc2OC(C)=O)OCO3)cc(OC)c1OC
inactive: [1] 91 % of control | [2] 91 % of control | [3] 90 % of control

c1ccc(CCC(Cc2cccnc2)c2ccccn2)nc1 (stereo not drawn)
inactive: dose: 100.0 mg/kg/injection, schedule: Q04DX002 (ip), vehicle: saline 95 % of control | dose: 200.0 mg/kg/injection, schedule: Q04DX002 (ip), vehicle: saline 104 % of control

Clc1cc(-c2csc(Cl)c2)cs1
inactive: [4] 97 % of control | [5] 103 % of control and 97 % of control | [6] 109 % of control | [7] 96 % of control

CC(=O)O.Cl.NC1C([O-])OC(CO)C(O)C1O.O=C1OC(C(O)CO)C([O-])=C1[OH2+].[Cu+2] (stereo not drawn)
inactive: dose: 3.75 mg/kg/injection, schedule: Q01DX005 (ip), vehicle: saline with Tween-80 107 % of control | dose: 7.5 mg/kg/injection, schedule: Q01DX005 (ip), vehicle: saline with Tween-80 100 % of control | dose: 15.0 mg/kg/injection, schedule: Q01DX005 (ip), vehicle: saline with Tween-80 98 % of control and 97 % of control | [1] 108 % of control

COc1ccc2nc3cc(Cl)ccc3c(Nc3ccccc3NS(C)(=O)=O)c2n1
inactive: dose: 12.5 mg/kg/injection, schedule: Q01DX009 (ip), vehicle: other 103 % of control | dose: 25.0 mg/kg/injection, schedule: Q01DX009 (ip), vehicle: other 105 % of control | dose: 50.0 mg/kg/injection, schedule: Q01DX009 (ip), vehicle: other 105 % of control | dose: 100.0 mg/kg/injection, schedule: Q01DX009 (ip), vehicle: other 111 % of control and 112 % of control | dose: 200.0 mg/kg/injection, schedule: Q01DX009 (ip), vehicle: other 106 % of control

CCC[N+]1(CC)CCCCC1
inactive: dose: 3.12 mg/kg/injection, schedule: Q01DX009 (ip), vehicle: saline 103 % of control | dose: 6.25 mg/kg/injection, schedule: Q01DX009 (ip), vehicle: saline 99 % of control | dose: 12.5 mg/kg/injection, schedule: Q01DX009 (ip), vehicle: saline 100 % of control

COc1cc(-c2nnc(SCCN(C)C)o2)cc(OC)c1OC
inactive: dose: 50.0 mg/kg/injection, schedule: Q04DX002 (ip), vehicle: water 100 % of control | dose: 100.0 mg/kg/injection, schedule: Q04DX002 (ip), vehicle: water 101 % of control | dose: 200.0 mg/kg/injection, schedule: Q04DX002 (ip), vehicle: water 100 % of control

O=C(N/N=C\c1ccc(Cl)cc1)c1ccccc1
inactive: [5] 95 % of control | [6] 90 % of control | [7] 104 % of control

COC(=O)C(CS[C@@H]1CCCC[C@H]1O)NC(C)=O (stereo partly drawn)
inactive: dose: 40.0 mg/kg/injection, schedule: Q01DX005 (ip), vehicle: saline 92 % of control | dose: 60.0 mg/kg/injection, schedule: Q01DX005 (ip), vehicle: saline 96 % of control | dose: 120.0 mg/kg/injection, schedule: Q01DX005 (ip), vehicle: saline 96 % of control

C=C[C@H](c1ccccc1O)c1cc(OC)c(OC)cc1OC
inactive: dose: 31.75 mg/kg/injection, schedule: Q01DX005 (ip), vehicle: Klucel (hydroxypropylcellulose) (HPC) 104 % of control | dose: 63.5 mg/kg/injection, schedule: Q01DX005 (ip), vehicle: Klucel (hydroxypropylcellulose) (HPC) 103 % of control | dose: 127.0 mg/kg/injection, schedule: Q01DX005 (ip), vehicle: Klucel (hydroxypropylcellulose) (HPC) 106 % of control | dose: 254.0 mg/kg/injection, schedule: Q01DX005 (ip), vehicle: Klucel (hydroxypropylcellulose) (HPC) 102 % of control

COc1cc(C2(C3CC(=O)OC3COC(c3ccccc3)(c3ccccc3)c3ccccc3)SCCCS2)cc(OC)c1OC (stereo not drawn)
inactive: dose: 100.0 mg/kg/injection, schedule: Q04DX002 (ip), vehicle: saline with Tween-80 88 % of control

CS(=O)(=O)OCC(O)C(O)C(OS(C)(=O)=O)C(O)COS(C)(=O)=O (stereo not drawn)
inactive: dose: 50.0 mg/kg/injection, schedule: Q04DX003 (ip), vehicle: Klucel (hydroxypropylcellulose) (HPC) 100 % of control | dose: 100.0 mg/kg/injection, schedule: Q04DX003 (ip), vehicle: Klucel (hydroxypropylcellulose) (HPC) 100 % of control

COC(C(OC)N1CCOCC1)N1CCOCC1 (stereo not drawn)
inactive: [5] 100 % of control | [6] 104 % of control | [7] 113 % of control

C[n+]1c2ccccc2c2c3c(cccc31)C(=O)c1cc(Cl)ccc1-2 (tested in a mixture with another compound)
inactive: dose: 3.12 mg/kg/injection, schedule: Q01DX009 (ip), vehicle: water 106 % of control | dose: 6.25 mg/kg/injection, schedule: Q01DX009 (ip), vehicle: water 98 % of control | dose: 12.5 mg/kg/injection, schedule: Q01DX009 (ip), vehicle: water 98 % of control

CCCCOCN(CCCc1ccccc1)COCCCC
inactive: dose: 12.5 mg/kg/injection, schedule: Q01DX009 (ip), vehicle: saline with Tween-80 89 % of control | [4] 102 % of control | [5] 118 % of control

C1=CCOCOC1
inactive: [5] 102 % of control and 109 % of control (2×) | [6] 104 % of control and 109 % of control and 116 % of control | [7] 111 % of control

NCCCCCCN1CCN(c2cccc(Cl)c2)CC1
inactive: dose: 50.0 mg/kg/injection, schedule: Q01DX009 (ip), vehicle: saline 103 % of control and 97 % of control | dose: 100.0 mg/kg/injection, schedule: Q01DX009 (ip), vehicle: saline 114 % of control and 98 % of control | dose: 200.0 mg/kg/injection, schedule: Q01DX009 (ip), vehicle: saline 123 % of control

COc1ccc([B-]23OCC[N+]2(CNC(=O)c2ccccc2O)CCO3)cc1 (stereo not drawn)
inactive: dose: 50.0 mg/kg/injection, schedule: Q01DX005 (ip), vehicle: Klucel (hydroxypropylcellulose) (HPC) 103 % of control | dose: 100.0 mg/kg/injection, schedule: Q01DX005 (ip), vehicle: Klucel (hydroxypropylcellulose) (HPC) 112 % of control | dose: 200.0 mg/kg/injection, schedule: Q01DX005 (ip), vehicle: Klucel (hydroxypropylcellulose) (HPC) 105 % of control

O=C(CBr)Nc1c(Br)cc(F)cc1Br
inactive: [5] 100 % of control | [6] 92 % of control | [7] 100 % of control

Source: PubChem BioAssay AID330 (DTP/NCI, 2004)
